This is an account of results in patent publication US20120220564A1, “SELECTIVE CALCIUM CHANNEL MODULATORS” (Zalicus Pharmaceuticals Ltd., priority 2009, published 2012).

One may read the inhibition as the change of the read-out against control, counted positive when it falls.

The series deals with CYP2D6 (Homo sapiens, UniProt P10635). In words: cytochrome inhibition. The class given is in vitro ADME. The settings on record: read-out: inhibition of cytochrome 2D6.
Chain of CYP2D6 (P10635 whole entry): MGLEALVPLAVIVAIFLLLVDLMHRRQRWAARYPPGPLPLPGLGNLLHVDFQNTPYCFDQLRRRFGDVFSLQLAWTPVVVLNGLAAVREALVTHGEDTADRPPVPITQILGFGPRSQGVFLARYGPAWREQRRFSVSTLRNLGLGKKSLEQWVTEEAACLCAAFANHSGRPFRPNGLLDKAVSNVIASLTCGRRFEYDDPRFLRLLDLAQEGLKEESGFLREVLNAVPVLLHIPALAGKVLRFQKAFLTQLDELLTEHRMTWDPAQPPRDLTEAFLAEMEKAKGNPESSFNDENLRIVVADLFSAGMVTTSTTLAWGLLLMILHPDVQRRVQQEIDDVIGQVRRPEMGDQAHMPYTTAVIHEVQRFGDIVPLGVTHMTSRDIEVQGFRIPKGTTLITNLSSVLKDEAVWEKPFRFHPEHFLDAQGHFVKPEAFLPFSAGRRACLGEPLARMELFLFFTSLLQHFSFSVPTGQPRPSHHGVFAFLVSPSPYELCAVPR

For `N[C@@H]1CCCC[C@H]1C(=O)N1CCC(CC(=O)Nc2cc(C(F)(F)F)cc(C(F)(F)F)c2)CC1` (racemic) [Compound 3, trans-2-(1-(2-aminocyclohexanecarbonyl)piperidin-4-yl)-N-(3,5-bis(trifluoromethyl)phenyl)acetamide], the inhibition at 10 micromolar is less than 10%.
